The text below walks through data of patent publication US20150274719A1, “AMINO-SUBSTITUTED IMIDAZO[1,2-A]PYRIDINECARBOXAMIDES AND THEIR USE” (BAYER PHARMA AKTIENGESELLSCHAFT, priority 2012, published 2015).

In the assay the target is T1, recombinant guanylate cyclase reporter cell line (Rattus norvegicus, UniProt P19686+P20595).
T1 construct: expressed in transfected cells; host or cells: recombinant reporter cell line
T1 sequence (P19686 1-690): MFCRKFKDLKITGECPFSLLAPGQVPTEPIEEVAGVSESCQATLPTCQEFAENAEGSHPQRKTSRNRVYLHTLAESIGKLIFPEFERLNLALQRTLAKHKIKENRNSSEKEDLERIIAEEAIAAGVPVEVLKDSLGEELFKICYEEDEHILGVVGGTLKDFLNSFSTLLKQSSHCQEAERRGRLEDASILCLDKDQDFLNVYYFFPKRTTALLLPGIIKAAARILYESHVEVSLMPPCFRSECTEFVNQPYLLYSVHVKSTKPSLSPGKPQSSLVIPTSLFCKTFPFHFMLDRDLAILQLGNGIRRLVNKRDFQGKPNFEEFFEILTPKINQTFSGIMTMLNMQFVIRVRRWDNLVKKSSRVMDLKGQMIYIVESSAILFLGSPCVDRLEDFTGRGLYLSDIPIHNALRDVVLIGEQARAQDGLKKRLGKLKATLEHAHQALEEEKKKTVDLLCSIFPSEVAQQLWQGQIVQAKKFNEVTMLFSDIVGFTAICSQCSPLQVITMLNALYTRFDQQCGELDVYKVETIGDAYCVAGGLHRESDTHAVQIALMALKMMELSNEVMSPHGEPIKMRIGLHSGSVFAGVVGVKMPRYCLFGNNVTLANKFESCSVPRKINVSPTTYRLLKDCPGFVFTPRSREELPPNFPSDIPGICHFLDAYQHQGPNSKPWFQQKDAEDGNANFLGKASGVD
T1 sequence (P20595 1-619): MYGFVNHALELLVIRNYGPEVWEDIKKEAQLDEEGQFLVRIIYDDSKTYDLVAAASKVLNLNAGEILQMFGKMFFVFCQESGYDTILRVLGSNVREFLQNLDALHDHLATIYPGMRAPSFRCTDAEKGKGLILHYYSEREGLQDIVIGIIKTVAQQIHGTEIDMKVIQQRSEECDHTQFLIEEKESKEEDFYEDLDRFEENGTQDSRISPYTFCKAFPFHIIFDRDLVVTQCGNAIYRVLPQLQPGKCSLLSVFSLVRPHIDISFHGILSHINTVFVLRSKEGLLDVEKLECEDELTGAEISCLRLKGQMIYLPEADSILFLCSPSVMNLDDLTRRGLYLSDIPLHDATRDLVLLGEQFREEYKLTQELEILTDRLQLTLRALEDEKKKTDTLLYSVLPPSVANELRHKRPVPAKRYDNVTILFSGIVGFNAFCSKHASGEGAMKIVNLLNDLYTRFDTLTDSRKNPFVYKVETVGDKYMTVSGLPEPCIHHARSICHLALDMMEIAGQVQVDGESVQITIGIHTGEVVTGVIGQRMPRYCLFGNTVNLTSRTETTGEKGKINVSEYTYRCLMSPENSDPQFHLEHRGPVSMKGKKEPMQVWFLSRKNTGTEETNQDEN
Kind of assay: Action on recombinant guanylate cyclase reporter cell line. The class given is cell-based. The settings on record: in some cases mean values from individual determinations. The method in brief: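 MEC values, meaning the lowest concentration producing a detectable response, were taken from a recombinant cyclase reporter cell assay. Where repeated, individual determinations were averaged.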

For `Cc1cc(OCc2c(F)cccc2F)c2nc(C)c(C(=O)NCCN3CCN(C(C)C)CC3)n2c1` [Example 139, 8-[(2,6-difluorobenzyl)oxy]-N-[2-(4-isopropylpiperazin-1-yl)ethyl]-2,6-dimethylimidazo[1,2-a]pyridine-3-carboxamide], the “MEC (minimal effective concentration)” value amounted to 1.00 µM.

On to `Cc1nc2c(OCc3c(F)cccc3F)cc(F)cn2c1C(=O)NCC(C)(C)N` [Example 140, N-(2-Amino-2-methylpropyl)-8-[(2,6-difluorobenzyl)oxy]-6-fluoro-2-methylimidazo[1,2-a]-pyridine-3-carboxamide], for which the “MEC (minimal effective concentration)” value worked out at 1.00 µM.

Take `Cc1nc2c(OCc3c(F)cccc3F)cccn2c1C(=O)NC(C)(C)C(C)(C)N` [Example 141, N-(3-Amino-2,3-dimethylbutan-2-yl)-8-[(2,6-difluorobenzyl)oxy]-2-methylimidazo[1,2-a]pyridine-3-carboxamide]: the “MEC (minimal effective concentration)” value was 3.00 µM.

Turning to `Cc1nc2c(OCc3c(F)cccc3F)cccn2c1C(=O)NCCN1CCC(F)(F)C1` [Example 143, 8-[(2,6-difluorobenzyl)oxy]-N-[2-(3,3-difluoropyrrolidin-1-yl)ethyl]-2-methylimidazo[1,2-a]pyridine-3-carboxamide], the “MEC (minimal effective concentration)” value came out at 0.30 µM.

`COCCNCCNC(=O)c1c(C)nc2c(OCc3c(F)cccc3F)cccn12` [Example 144, 8-[(2,6-difluorobenzyl)oxy]-N-{2-[(2-methoxyethyl)amino]ethyl}-2-methylimidazo[1,2-a]pyridine-3-carboxamide]: the “MEC (minimal effective concentration)” value is 3.00 µM.

In the case of `Cc1nc2c(OCc3c(F)cccc3F)cccn2c1C(=O)NCC(C)(C)N(C)C` [Example 145, 8-[(2,6-difluorobenzyl)oxy]-N-[2-(dimethylamino)-2-methylpropyl]-2-methylimidazo[1,2-a]pyridine-3-carboxamide], the “MEC (minimal effective concentration)” value was 3.00 µM.

Turning to `Cc1nc2c(OCc3c(F)cccc3F)cccn2c1C(=O)NCCN(CC(F)F)C1CC1` [Example 146, N-{2-[cyclopropyl(2,2-difluoroethyl)amino]ethyl}-8-[(2,6-difluorobenzyl)oxy]-2-methylimidazo[1,2-a]-pyridine-3-carboxamide], the “MEC (minimal effective concentration)” value amounted to 1.00 µM.

In the case of `Cc1nc2c(OCc3c(F)cccc3F)cc(Cl)cn2c1C(=O)NCC(C)(C)N1CCCC1` [Example 148, 6-chloro-8-[(2,6-difluorobenzyl)oxy]-2-methyl-N-[2-methyl-2-(pyrrolidin-1-yl)-propyl]imidazo[1,2-a]pyridine-3-carboxamide], the “MEC (minimal effective concentration)” value was found to be 1.00 µM.

Consider `Cc1nc2c(OCc3c(F)cccc3F)cc(Cl)cn2c1C(=O)NCCNC(C)C` [Example 149, 6-chloro-8-[(2,6-difluorobenzyl)oxy]-N-[2-(isopropylamino)ethyl]-2-methylimidazo[1,2-a]-pyridine-3-carboxamide], for which the “MEC (minimal effective concentration)” value turned out to be 1.00 µM.

Consider `Cc1nc2c(OCc3c(F)cccc3F)cc(Cl)cn2c1C(=O)NCCN(CC(F)F)C1CC1` [Example 150, 6-chloro-N-{2-[cyclopropyl(2,2-difluoroethyl)-amino]ethyl}-8-[(2,6-difluorobenzyl)oxy]-2-methylimidazo[1,2-a]pyridine-3-carboxamide], for which the “MEC (minimal effective concentration)” value turned out to be 0.10 µM.

As to `Cc1nc2c(OCc3c(F)cccc3F)cc(Cl)cn2c1C(=O)NCCN1CCC(F)(F)CC1` [Example 151, 6-chloro-8-[(2,6-difluorobenzyl)oxy]-N-[2-(4,4-difluoropiperidin-1-yl)ethyl]-2-methylimidazo[1,2-a]pyridine-3-carboxamide], the “MEC (minimal effective concentration)” value was determined as 0.10 µM.

Turning to `Cc1nc2c(OCc3c(F)cccc3F)cc(Cl)cn2c1C(=O)NCCN1CCN(C(C)C)CC1` [Example 152, 6-chloro-8-[(2,6-difluorobenzyl)oxy]-N-[2-(4-isopropylpiperazin-1-yl)ethyl]-2-methyl-imidazo[1,2-a]pyridine-3-carboxamide], the “MEC (minimal effective concentration)” value amounted to 1.00 µM.

For `COCCNCCNC(=O)c1c(C)nc2c(OCc3c(F)cccc3F)cc(Cl)cn12` [Example 153, 6-chloro-8-[(2,6-difluorobenzyl)oxy]-N-{2-[(2-methoxyethyl)amino]ethyl}-2-methylimidazo[1,2-a]pyridine-3-carboxamide], the “MEC (minimal effective concentration)” value worked out at 1.00 µM.

Consider `Cc1nc2c(OCc3c(F)cccc3F)cc(Cl)cn2c1C(=O)NCCN1CCN(C)CC1` [Example 154, 6-chloro-8-[(2,6-difluorobenzyl)oxy]-2-methyl-N-[2-(4-methylpiperazin-1-yl)ethyl]imidazo[1,2-a]pyridine-3-carboxamide], for which the “MEC (minimal effective concentration)” value worked out at 1.00 µM.

As to `Cc1nc2c(OCc3c(F)cccc3F)cc(Cl)cn2c1C(=O)NCCN1CC(N2CCCC2)C1` [Example 156, 6-chloro-8-[(2,6-difluorobenzyl)oxy]-2-methyl-N-{2-[3-(pyrrolidin-1-yl)azetidin-1-yl]ethyl}-imidazo[1,2-a]pyridine-3-carboxamide], the “MEC (minimal effective concentration)” value came out at 3.00 µM.

On to `Cc1nc2c(OCc3c(F)cccc3F)cc(Cl)cn2c1C(=O)NCCN1C[C@@H](C)O[C@@H](C)C1` [Example 158, 6-chloro-8-[(2,6-difluorobenzyl)oxy]-N-{2-[(2R,6S)-2,6-dimethylmorpholin-4-yl]ethyl}-2-methylimidazo[1,2-a]pyridine-3-carboxamide], for which the “MEC (minimal effective concentration)” value was 0.30 µM.

On to `Cc1cc(OCc2c(F)cccc2F)c2nc(C)c(C(=O)NC3CCCC(N)C3)n2c1` (stereo not drawn) [Example 160, N-(3-aminocyclohexyl)-8-[(2,6-difluorobenzyl)oxy]-2,6-dimethylimidazo[1,2-a]-pyridine-3-carboxamide], for which the “MEC (minimal effective concentration)” value came out at 1.00 µM.

Consider `Cc1cc(OCc2c(F)cccc2F)c2nc(C)c(C(=O)NCCN3CC(N4CCCC4)C3)n2c1` [Example 162, 8-[(2,6-difluorobenzyl)oxy]-2,6-dimethyl-N-{2-[3-(pyrrolidin-1-yl)azetidin-1-yl]ethyl}imidazo[1,2-a]pyridine-3-carboxamide], for which the “MEC (minimal effective concentration)” value stood at 3.00 µM.

Regarding `Cc1cc(OCc2c(F)cccc2F)c2nc(C)c(C(=O)NCCN3CCC(F)(F)CC3)n2c1` [Example 163, 8-[(2,6-difluorobenzyl)oxy]-N-[2-(4,4-difluoro-piperidin-1-yl)ethyl]-2,6-dimethylimidazo[1,2-a]pyridine-3-carboxamide], the “MEC (minimal effective concentration)” value was 0.30 µM.

As for `Cc1cc(OCc2c(F)cccc2F)c2nc(C)c(C(=O)NCCN(CC(F)F)C3CC3)n2c1` [Example 164, N-{2-[cyclopropyl(2,2-difluoroethyl)amino]ethyl}-8-[(2,6-difluorobenzyl)oxy]-2,6-dimethylimidazo[1,2-a]-pyridine-3-carboxamide], the “MEC (minimal effective concentration)” value was 0.10 µM.

For the compound `Cc1cc(OCc2c(F)cccc2F)c2nc(C)c(C(=O)NCC3(N)CCC3)n2c1` [Example 165, N-[(1-aminocyclobutyl)methyl]-8-[(2,6-difluorobenzyl)oxy]-2,6-dimethylimidazo[1,2-a]-pyridine-3-carboxamide], the “MEC (minimal effective concentration)” value amounted to 0.10 µM.
